Where a name gives a salt, the structure may show the parent alone. Read-outs that look alike come from different tables or passages of the source. Blank lines part the entries; values can stand above or below the compound they belong to.
Columns and labels:
[1] = Pig skin (in vitro) transdermal penetration; assay type: in vitro ADME, Yucatan miniature pig
Procedure: The test procedure is as described for rat skin studies with the exception that excised pig skin samples from Yucatan miniature pigs are utilized.
To address this issue, in vitro skin penetration of tripelennamine (TPL) in 2 saturated aqueous solutions, was measured using pig skin in accordance with the Pig Skin (in vitro) procedure earlier outlined. One solution contained 0.5% IMI. The other solution served as an aqueous control (buffered with NaOH to the same pH as the IMI containing solution).
Since all skin sections are dermatomed to 380 microns, h is a constant. In each composition of Table 5, the vehicle was saturated with the pharmacologic agent. Therefore, the "leaving tendency", or the thermodynamic activity of the pharmacologic agent in the vehicle, remained unchanged (K is the same for both compositions). this means that D must increase in order to explain the 3-fold increase in transdermal penetration. This is indicative of a true enhancement effect of topically applied IMI. The results of Table 5, substantiate that IMI acts as a true skin penetration enhancer. […] This may be one reason why use of a transdermal penetration enhancing amount of a selected imidazole or imidazole derivative of the present invention, in conjunction with a pharmacologically active agent whose transdermal penetration is capable of being enhanced, affords the advantageous enhancement of penetration achieved by the present invention.

[2] = Procedure: Polyoxyethylene stearyl ethers, 3 wt. %
Polyoxypropylene fatty alcohol ethers, 3 wt. %
Deionized water, 94 wt. %
Further, in all cases, unless otherwise noted, the tests were carried out at 37° C. and results were compared to penetration data for the same material in the oil/water emulsion base. Moreover, all percentages of composition components recited are, unless otherwise indicated, weight percent (wt. %) and are based upon the total weight of the composition.
The test method is carried out as follows:
A. Prior to testing, rats are routinely acclimated to the laboratory environment for seven days and gross observations are made to ensure good health of the animals to be tested.
B. Female Sprague Dawley rats (190-240 gm) are selected for testing and identified by cage label and ear tag number.
C. Diffusion Cell Preparation.
1. An O-ring is placed on a standard Franz Diffusion Cell. A stir bar is placed in the receptor compartment. Each cell is filled with approximately 4.5 ml sterile physiologic saline (receptor compartments are calibrated to contain 5.0 ml).
2. The jacketed diffusion cells are maintained at 37° C.±1° (or alternatively desired temperature) using an external water bath and a circulating pump.
D. Skin Section Preparation and Mounting
1. Test animals are sacrificed by intraperitoneal injection of 0.4 ml/100 gm. body weight sodium pentobarital (1 gm/ml).
2. The backs are lightly shaved using electric hair clippers.
3. A section of skin, measuring approximately 8 cm long by 7 cm wide, is removed from the back of each rat using a No. 20 scalpel assuring that the skin section is free from subcutaneous fat.
4. A piece of the skin section is mounted over an O-ring on the diffusion cell, epidermal side facing up. The donor compartment is placed on top of the skin section making a complete seal over the skin. A clamp is used to secure the skin section in place.
5. Air bubbles that collect under the skin are removed by inverting the diffusion cell and tapping it gently. The receptor compartment is filled with sterile physiologic saline to 5.0 ml.
E. Application of Test Materials
1. Test and control materials are applied to the skin using s syringe or spatula. The material is spread evenly and completely over the exposed skin surface using the tip of the syringe/spatula.
1. An HPLC carousel is loaded with microvials. Springs and inserts are placed into the microvials.
2. Receptor compartments are sampled at desired time intervals using a microliter (μl) syringe. The sample (approximately 160 μl) is placed into the insert. The microvial is sealed with a plastic cap.
3. When multiple sampling is required, the receptor compartment is replenished with sterile physiologic saline to maintain a 5.0 ml volume.
Samples are analyzed using standard analytical techniques. The presence of test material in the samples is indicative of transdermal penetration.

[3] = cited from earlier work
[4] = Human skin (in vitro) transdermal penetration; assay type: in vitro ADME; conditions: Table 4
Text: The test procedure is as described for rat skin studies with the exception that normal excised human skin samples obtained from breast reduction surgery are utilized.
As shown by the results of Table 4, imidazole enhanced xylometazoline penetration through human skin 5.3 fold.

[5] = general statement; cited from earlier work
[6] = 2% TPL in B with 0.5% imidazole derivative, Table 2, average of multiple determinations
[7] = multiple of average control determination of the same study, 2% TPL in B with 0.5% imidazole derivative, Table 2

Compound: c1c[nH]cn1 [IMIDAZOLE, imidazole]
Increase in skin permeation of TPL ([1]; 0.5% IMI in saturated aqueous TPL solution): 3 fold | 24 hour penetration of tripelennamine HCl (total micrograms base) ([2]; 2% TPL in B + 0.01% imidazole): 208 micrograms base | 24 hour penetration of tripelennamine HCl (total micrograms base) ([2]; 2% TPL in B + 0.1% imidazole): 413 micrograms base | 24 hour penetration of tripelennamine HCl (total micrograms base) ([2]; 2% TPL in B + 1.0% imidazole): 662 micrograms base | TPL penetration increased as compared to the control ([2]; 2% TPL in B, imidazole up to 1.0%, Table 1): approximately 340% | Increase in penetration relative to control ([2]; multiple of average control determination, 2% TPL in B + 0.01% imidazole): 1.1 | Increase in penetration relative to control ([2]; multiple of average control determination, 2% TPL in B + 0.1% imidazole): 2.1 | Increase in penetration relative to control ([2]; multiple of average control determination, 2% TPL in B + 1.0% imidazole): 3.4

Compound: NS(=O)(=O)c1cc2c(cc1Cl)NCNS2(=O)=O [HCTZ, HYDROCHLOROTHIAZIDE, reference compound]
24 hour penetration (total micrograms base) [2]: 1.7 micrograms base | Imidazole enhanced the transdermal penetration (fold) ([2]; 5% HCTZ with 1% imidazole, Table 3 Study IX): five

Compound: c1ccc(-n2ccnc2)cc1 [1-PHENYL IMIDAZOLE]
24 hour penetration of tripelennamine HCl (total micrograms base) [2, 6]: 450 micrograms base | Increase in penetration relative to control [2, 7]: 1.8

Compound: CCCCn1ccnc1 [1-BUTYL IMIDAZOLE]
24 hour penetration of tripelennamine HCl (total micrograms base) [2]: 497 micrograms base | Increase in penetration relative to control [2]: 2.1

Compound: CCCCCCCCCCn1ccnc1 [1-DECYL IMIDAZOLE]
24 hour penetration of tripelennamine HCl (total micrograms base) [2]: 446 micrograms base | Increase in penetration relative to control [2]: 3.7

Compound: Cc1nccn1C [1-2 DIMETHYL IMIDAZOLE, 1,2-dimethylimidazole]
24 hour penetration of tripelennamine HCl (total micrograms base) [2]: 374 micrograms base | Increase in penetration relative to control [2]: 4.3

Compound: c1ccc(Cn2ccnc2)cc1 [1-BENZYL IMIDAZOLE]
24 hour penetration of tripelennamine HCl (total micrograms base) [2, 6]: 277 micrograms base | Increase in penetration relative to control [2, 7]: 1.1

Compound: Cc1cc(C(C)(C)C)cc(C)c1CC1=NCCN1 [XYL, XYLO[…], HCL, reference compound]
Penetration enhanced by imidazole ([2]; 1% drug with 0.5% imidazole, Table 3 Studies V and VI): 610% | 24 hour penetration (total micrograms base) ([2]; B + 1% drug + 0.5% IMI, Table 3): 613 micrograms base | 24 hour penetration (total micrograms base) ([2]; B + 5% TPL + 5% XYL, Table 3 Study I): 444 micrograms base | 24 hour penetration (total micrograms base) ([2]; B + 5% TRP + 5% XYL, Table 3 Study II): 1053 micrograms base | Penetration of XYL ([2]; combination of TPL and XYL vs XYL alone, Table 3 Study I): remained fairly constant | Increase in transdermal penetration ([2]; combination of TRP and XYL, Table 3 Study II): 90% | 24 hour penetration (total micrograms base) ([2]; control: 1% of the drug alone in B, Table 3): 100 micrograms base | 24 hour penetration (total micrograms base) ([2]; control: 5% of the drug alone in B, Table 3): 544 micrograms base | Increase in penetration relative to control ([2]; multiple of average control determination, B + 1% drug + 0.5% IMI, Table 3): 6.1 | Increase in penetration relative to control ([2]; multiple of average control determination, B + 5% TPL + 5% XYL, Table 3 Study I): 0.8 | Increase in penetration relative to control ([2]; multiple of average control determination, B + 5% TRP + 5% XYL, Table 3 Study II): 1.9 | Imidazole enhanced xylometazoline penetration through human skin ([4]; 2% XYL with 0.5% imidazole): 5.3 fold | 24 hour penetration (total micrograms base) ([4]; B + 2% XYL + 0.5% IMI): 203 micrograms base | 24 hour penetration (total micrograms base) ([4]; control: B + 2% XYL): 38 micrograms base | Increase in penetration relative to control ([4]; multiple of average control determination, B + 2% XYL + 0.5% IMI): 5.3

Compound: c1ccc(-c2ncc[nH]2)cc1 [2-PHENYL IMIDAZOLE]
24 hour penetration of tripelennamine HCl (total micrograms base) [2, 6]: 435 micrograms base | Increase in penetration relative to control [2, 7]: 1.7

Compound: CCCc1ncc[nH]1 [2-PROPYL IMIDAZOLE]
24 hour penetration of tripelennamine HCl (total micrograms base) [2]: 554 micrograms base | Increase in penetration relative to control [2]: 2.2

Compound: Cn1ccn(C)c1=O [compound IIa]
Heat stability [5]: heat stable

Compound: Cn1cc[n+](C)c1 [Compound Ia]
Heat stability [5]: unstable to heat

The next lines start with results.

Increase in skin permeation of TPL [1]: approximately 3 fold | 24 hour penetration (total micrograms base) ([1]; aqueous control: saturated TPL/H2O, buffered with NaOH to the same pH, Table 5): 132 micrograms base | Increase in penetration relative to control ([1]; multiple of average control determinations, saturated TPL/H2O + 0.5% IMI, Table 5): 2.75 | 24 hour penetration (total micrograms base) ([1]; saturated TPL/H2O + 0.5% IMI, Table 5): 363 micrograms base | 24 hour penetration (total micrograms base) [2]: 196 micrograms base | Increase in TPL penetration [2]: 270% | Penetration of TPL enhanced by [2]: 1190%
Compound: CN(C)CCN(Cc1ccccc1)c1ccccn1 [TPL, TRIPELENNAMINE HCL, reference compound]
Skin irritation ([3]; IPM at 0.5%): little or no skin irritation | Skin irritation ([3]; IPM levels sufficient to enhance transdermal penetration): generally are irritating to skin

24 hour penetration of tripelennamine HCl (total micrograms base) [2]: 142 micrograms base | Increase in penetration relative to control [2]: 1.2
Compound: O=[N+]([O-])c1c[nH]cn1 [4-NITRO IMIDAZOLE]

24 hour penetration of tripelennamine HCl (total micrograms base) [2]: 453 micrograms base | Increase in penetration relative to control [2]: 2.5
Compound: CCC(=O)n1ccnc1 [N-PROPIONYL IMIDAZOLE]

24 hour penetration of tripelennamine HCl (total micrograms base) [2]: 301 micrograms base | Increase in penetration relative to control [2]: 3.5
Compound: Cn1cc[nH]c1=S [METHIMIDAZOLE, methimazole, reference compound]

24 hour penetration (total micrograms base) [2]: 87.5 micrograms base
Compound: CC(=O)Oc1ccccc1C(=O)O [ASA, ASPIRIN, reference compound]

— patent US5164406A, “Method for enhancing transdermal penetration and compositions useful therein” (priority 1989, dated 1992)
